Experiments:
Format in all cases: cell-based
HCT116 cells = assay: CCK-8 antiproliferation assay, HCT116; details: Homo sapiens, HCT-116; 20 μM, 48 h, CCK-8, mean ± SD; read-out: Inhibition Rate (%) at 20 μM, HCT116
Procedure: (§1) Human lung carcinoma cell lines A549, human cervical cancer cell lines HeLa, human prostate cancer cell lines PC3, human colorectal carcinoma cell lines HCT116, and human liver cells L02 were purchased from the Chinese Academy of Sciences Shanghai Cell Bank (Shanghai, China). HeLa, A549, PC3, HCT116, and L02 cells were cultured in DMEM Dulbecco’s Modified Eagle Medium (DMEM; Gibco Inc., Gaithersburg, MD, USA). All cultures were provided with 10% fetal bovine serum (FBS; YHSM, Beijing, China), 100 IU/mL penicillin, and 100 μg/mL streptomycin, and cells were incubated at 37 °C in an atmosphere of 5% CO2.
(§2) Cell viability was determined using a CCK-8 kit (Apexbio, Houston, TX, USA). […] Subsequently, absorbance was assessed at 450 nm. Three duplicates were set in each group.
(§3) All synthesized quinoxalines compounds were tested for in vitro cytotoxicity against four cancer cell lines (HeLa, PC3, A549, and HCT116). The inhibitory effects of these compounds were evaluated using the CCK-8 assay after treatment with 20 μM of each compound. […] The species of phenyl substituents have a significant effect on the activity. […] By comparison, hydrophobic substitution at the phenyl ring gave derivatives with relatively low potency (QW7–8). In addition, large substituents on the phenyl ring exerted an unfavorable influence on the potency of the compounds (QW8 and QW16).

PC3 cells = assay: CCK-8 antiproliferation assay, PC3; details: Homo sapiens, PC-3; 20 μM, 48 h, CCK-8, mean ± SD; read-out: Inhibition Rate (%) at 20 μM, PC3
Procedure: as §1, §2, §3

A549 cells = assay: CCK-8 antiproliferation assay, A549; details: Homo sapiens, 20 μM, 48 h, CCK-8, mean ± SD, read-out: Inhibition Rate (%) at 20 μM, A549
Procedure: as §1, §2, §3

HeLa cells = assay: CCK-8 antiproliferation assay, HeLa; details: Homo sapiens; 20 μM, 48 h, CCK-8, mean ± SD; read-out: Inhibition Rate (%) at 20 μM, HeLa
Procedure: as §1, §2, §3

Compound | inhibition at 20 µM (HCT116 cells) [%] | inhibition at 20 µM (PC3 cells) [%] | inhibition at 20 µM (A549 cells) [%] | inhibition at 20 µM (HeLa cells) [%]
COc1cc(-c2ccc(/C=N/NC(=O)c3ccc(F)cc3)o2)c(OC)cc1-c1cnc2ccccc2n1 [QW1, (E)-N’-((5-(2,5-dimethoxy-4-(quinoxalin-2-yl)phenyl)furan-2-yl)methylene)-4-fluorobenzohydrazide] | 15.33 ± 0.14 | 5.13 ± 0.59 | 7.47 ± 0.52 | 5.14 ± 0.13
COc1cc(-c2ccc(/C=N/NC(=O)c3ccccc3)o2)c(OC)cc1-c1cnc2ccccc2n1 [QW2, (E)-N’-((5-(2,5-dimethoxy-4-(quinoxalin-2-yl)phenyl)furan-2-yl)methylene)benzohydrazide] | 17.8 ± 0.67 | 1.76 ± 0.23 | 6.46 ± 0.43 | 8.64 ± 0.26
COc1cc(-c2ccc(/C=N/NC(=O)c3cccnc3)o2)c(OC)cc1-c1cnc2ccccc2n1 [QW3, (E)-N’-((5-(2,5-dimethoxy-4-(quinoxalin-2-yl)phenyl)furan-2-yl)methylene)nicotinohydrazide] | 33.8 ± 0.41 | 32.6 ± 0.65 | 11.63 ± 0.03 | 38.81 ± 0.3
COc1cc(-c2ccc(/C=N/NC(=O)c3ccc(O)cc3)o2)c(OC)cc1-c1cnc2ccccc2n1 [QW4, (E)-N’-((5-(2,5-dimethoxy-4-(quinoxalin-2-yl)phenyl)furan-2-yl)methylene)-4-hydroxybenzohydrazide] | 30.7 ± 0.04 | 38.74 ± 0.2 | 25.5 ± 0.62 | 44.29 ± 0.05
COc1cc(-c2ccc(/C=N/NC(=O)c3ccncc3)o2)c(OC)cc1-c1cnc2ccccc2n1 [QW5, (E)-N’-((5-(2,5-dimethoxy-4-(quinoxalin-2-yl)phenyl)furan-2-yl)methylene)isonicotinohydrazide] | 30.6 ± 0.51 | 26 ± 0.37 | 18.52 ± 0.18 | 31.13 ± 0.23
COc1cc(-c2ccc(/C=N/NC(=O)c3ccccn3)o2)c(OC)cc1-c1cnc2ccccc2n1 [QW6, (E)-N’-((5-(2,5-dimethoxy-4-(quinoxalin-2-yl)phenyl)furan-2-yl)methylene)picolinohydrazide] | 16.5 ± 0.25 | 0.1 ± 0.13 | 1.66 ± 0.61 | 0.53 ± 0.12
COc1cc(-c2ccc(/C=N/NC(=O)c3cccc(C)c3)o2)c(OC)cc1-c1cnc2ccccc2n1 [QW7, (E)-N’-((5-(2,5-dimethoxy-4-(quinoxalin-2-yl)phenyl)furan-2-yl)methylene)-3-methylbenzohydrazide] | 2.18 ± 0.38 | 4.73 ± 0.01 | 4.31 ± 0.08 | 8.46 ± 0.42
COc1cc(-c2ccc(/C=N/NC(=O)c3ccc(-c4ccccc4)cc3)o2)c(OC)cc1-c1cnc2ccccc2n1 [QW8, (E)-N’-((5-(2,5-dimethoxy-4-(quinoxalin-2-yl)phenyl)furan-2-yl)methylene)-[1,1’-biphenyl]-4-carbohydrazide] | 20.92 ± 0.05 | 11.8 ± 0.56 | 5.8 ± 0.02 | 3.46 ± 0.17
COc1cc(-c2ccc(/C=N/NC(=O)c3ccc(F)cc3)o2)c(OC)cc1-c1ccc2nccnc2c1 [QW9, (E)-N’-((5-(2,5-dimethoxy-4-(quinoxalin-6-yl)phenyl)furan-2-yl)methylene)-4-fluorobenzohydrazide] | 29.9 ± 0.57 | 3.98 ± 0.49 | 1.16 ± 0.63 | 17.1 ± 0.41
COc1cc(-c2ccc(/C=N/NC(=O)c3ccccc3)o2)c(OC)cc1-c1ccc2nccnc2c1 [QW10, (E)-N’-((5-(2,5-dimethoxy-4-(quinoxalin-6-yl)phenyl)furan-2-yl)methylene)benzohydrazide] | 10.9 ± 0.46 | 8.09 ± 0.13 | 8.82 ± 0.08 | 4.3 ± 0.45
COc1cc(-c2ccc(/C=N/NC(=O)c3cccnc3)o2)c(OC)cc1-c1ccc2nccnc2c1 [QW11, (E)-N’-((5-(2,5-dimethoxy-4-(quinoxalin-6-yl)phenyl)furan-2-yl)methylene)nicotinohydrazide] | 39.9 ± 0.68 | 29.35 ± 0.18 | 17.27 ± 0.03 | 45.5 ± 0.61
COc1cc(-c2ccc(/C=N/NC(=O)c3ccncc3)o2)c(OC)cc1-c1ccc2nccnc2c1 [QW13, (E)-N’-((5-(2,5-dimethoxy-4-(quinoxalin-6-yl)phenyl)furan-2-yl)methylene)isonicotinohydrazide] | 23.2 ± 0.27 | 18.5 ± 0.3 | 3.96 ± 0.59 | 37.71 ± 0.12
COc1cc(-c2ccc(/C=N/NC(=O)c3ccccn3)o2)c(OC)cc1-c1ccc2nccnc2c1 [QW14, (E)-N’-((5-(2,5-dimethoxy-4-(quinoxalin-6-yl)phenyl)furan-2-yl)methylene)picolinohydrazide] | 30.5 ± 0.55 | 12.9 ± 0.31 | 5.46 ± 0.7 | 8.67 ± 0.24
COc1cc(-c2ccc(/C=N/NC(=O)c3cccc(C)c3)o2)c(OC)cc1-c1ccc2nccnc2c1 [QW15, (E)-N’-((5-(2,5-dimethoxy-4-(quinoxalin-6-yl)phenyl)furan-2-yl)methylene)-3-methylbenzohydrazide] | 18.8 ± 0.54 | 13.77 ± 0.12 | 9.44 ± 0.39 | 14.26 ± 0.12
COc1cc(-c2ccc(/C=N/NC(=O)c3ccc(-c4ccccc4)cc3)o2)c(OC)cc1-c1ccc2nccnc2c1 [QW16, (E)-N’-((5-(2,5-dimethoxy-4-(quinoxalin-6-yl)phenyl)furan-2-yl)methylene)-[1,1’-biphenyl]-4-carbohydrazide] | 41.48 ± 0.05 | 9.37 ± 0.09 | 4.12 ± 0.33 | 10.93 ± 0.04
COc1cc(-c2cc(OC)c3ccccc3c2OC)c(OC)cc1-c1ccc(/C=N/NC(=O)c2ccc(F)cc2)o1 [QW17, (E)-N’-((5-(4-(1,4-dimethoxynaphthalen-2-yl)-2,5-dimethoxyphenyl)furan-2-yl)methylene)-4-fluorobenzohydrazide] | 4.69 ± 0.5 | 11.7 ± 0.66 | 0.44 ± 0.16 | 6.49 ± 0.17
COc1cc(-c2cc(OC)c3ccccc3c2OC)c(OC)cc1-c1ccc(/C=N/NC(=O)c2ccccc2)o1 [QW18, (E)-N’-((5-(4-(1,4-dimethoxynaphthalen-2-yl)-2,5-dimethoxyphenyl)furan-2-yl)methylene)benzohydrazide] | 10.9 ± 0.46 | 8.09 ± 0.13 | 8.82 ± 0.08 | 4.3 ± 0.45
COc1cc(-c2cc(OC)c3ccccc3c2OC)c(OC)cc1-c1ccc(/C=N/NC(=O)c2cccnc2)o1 [QW19, (E)-N’-((5-(4-(1,4-dimethoxynaphthalen-2-yl)-2,5-dimethoxyphenyl)furan-2-yl)methylene)nicotinohydrazide] | 4.61 ± 0.66 | 8.37 ± 0.21 | 0.15 ± 0.35 | 9.56 ± 0.65
COc1cc(-c2cc(OC)c3ccccc3c2OC)c(OC)cc1-c1ccc(/C=N/NC(=O)c2ccc(O)cc2)o1 [QW20, (E)-N’-((5-(4-(1,4-dimethoxynaphthalen-2-yl)-2,5-dimethoxyphenyl)furan-2-yl)methylene)-4-hydroxybenzohydrazide] | 48.5 ± 0.01 | 15.6 ± 0.19 | 18.73 ± 0.1 | 22.5 ± 0.25
COc1cc(-c2cc(OC)c3ccccc3c2OC)c(OC)cc1-c1ccc(/C=N/NC(=O)c2ccncc2)o1 [QW21, (E)-N’-((5-(4-(1,4-dimethoxynaphthalen-2-yl)-2,5-dimethoxyphenyl)furan-2-yl)methylene)isonicotinohydrazide] | 4.46 ± 0.24 | 0.12 ± 0.2 | 0.68 ± 0.36 | 0.36 ± 0.6
COc1cc(-c2cc(OC)c3ccccc3c2OC)c(OC)cc1-c1ccc(/C=N/NC(=O)c2ccccn2)o1 [QW22, (E)-N’-((5-(4-(1,4-dimethoxynaphthalen-2-yl)-2,5-dimethoxyphenyl)furan-2-yl)methylene)picolinohydrazide] | 6.58 ± 0.23 | 0.33 ± 0.06 | 37.5 ± 0.48 | 5.47 ± 0.37
COc1cc(-c2cc(OC)c3ccccc3c2OC)c(OC)cc1-c1ccc(/C=N/NC(=O)c2cccc(C)c2)o1 [QW23, (E)-N’-((5-(4-(1,4-dimethoxynaphthalen-2-yl)-2,5-dimethoxyphenyl)furan-2-yl)methylene)-3-methylbenzohydrazide] | 2.26 ± 0.03 | 2.99 ± 0.25 | 1.87 ± 0.33 | 0.84 ± 0.64
COc1cc(-c2cc(OC)c3ccccc3c2OC)c(OC)cc1-c1ccc(/C=N/NC(=O)c2ccc(-c3ccccc3)cc2)o1 [QW24, (E)-N’-((5-(4-(1,4-dimethoxynaphthalen-2-yl)-2,5-dimethoxyphenyl)furan-2-yl)methylene)-[1,1’-biphenyl]-4-carbohydrazide] | 4.39 ± 0.52 | 2.4 ± 0.07 | 6 ± 0.1 | 4.96 ± 0.61

Reference: paper PMC9698340, “Discovery and SAR Study of Quinoxaline–Arylfuran Derivatives as a New Class of Antitumor Agents” (Pharmaceutics, 2022)
